Test results reported in a melting point compilation (Tetko et al.).

Structure (SMILES) | melting point [°C]
O=C(O)c1cccc(F)c1C(=O)O | 171 to 175
O=C(CCCNC(=O)CCCCC(=O)NCCCC(=O)NO)NO | 163
COc1ccc(F)c(CBr)c1F | 55
O=C1COc2cccnc2N1 | 206
FC(F)(F)c1cc(C=Cc2noc(CCl)n2)cc(C(F)(F)F)c1 | 106 to 108
Brc1ccc(Oc2ccc(Br)cc2Br)cc1 | 64 to 64.5
COc1ccc(C(=O)C=CC(=O)O)cc1 | 139
CC=CC=C(C)C | -74.2
Cc1ccc(P(c2ccccc2)c2ccccc2)cc1 | 66 to 68
COC(=O)C(C)Oc1ccc(Oc2ccc(Cl)cc2Cl)cc1 (stereo not drawn) | 44
COC(=O)C1(S(=O)(=O)c2ccc(C)cc2)CC1 | 97.2
FC12CC3CC(CC(C3)C1)C2 | 225
N#Cc1cccc(C(=O)Cl)c1 | 38 to 44
C/C(=N\c1cccc2cccc(N)c12)c1c(O)c2ccccc2n(-c2ccccc2)c1=O | > 300
CCn1c2ccc(Br)cc2c2cc(Br)ccc21 | 139
O=C1Cc2ccccc21 | 14
Cc1c(C2(c3cc(C(C)C)c(O)c(CN(CC(=O)O)CC(=O)O)c3C)OC(=O)c3ccccc32)cc(C(C)C)c(O)c1CN(CC(=O)O)CC(=O)O | 191
Nc1ccc(C#Cc2ccc(N)cc2)cc1 | 235 to 236
COC(=O)c1cc([N+](=O)[O-])cc([N+](=O)[O-])c1 | 110
CCC(=O)c1ccc[nH]1 | 50
CC(C)(C)c1cc(N=Nc2cc(C(C)(C)C)cc(C(C)(C)C)c2O)c(O)c(C(C)(C)C)c1 | 246 to 247
CC(C)(C)N(NC(=O)c1ccc(Cl)cc1)C(=O)c1ccccc1 | 200
CCN(CC)C(C)O (stereo not drawn) | -70
Cc1ccc(NC(=O)CCC2C(=O)C3(C)CCC2C3(C)C)cc1 (stereo not drawn) | 114
O=C(O)c1cc(F)c(Cl)nc1Cl | 154 to 155
c1ccc(P(c2ccccc2)P(c2ccccc2)c2ccccc2)cc1 | 120 to 122
O=C(O)CSc1ccncc1 | 251 to 255

Structure (SMILES) | melting point [°C]
Cc1onc(-c2c(Cl)cccc2Cl)c1C(N)=O | 166 to 168
Ic1ccc(Cc2ccccc2)cc1 | 38 to 40
CC1=NN(c2ccccc2)C(=O)C1C(=O)C(F)(F)F (stereo not drawn) | 143
Fc1ccc(F)cc1 | -13
Cn1c(/C(C#N)=N/Nc2cccc(Cl)c2)nc2ccccc21 | 165
c1ccc2c(c1)Sc1ccccc1N2CC1CN2CCC1CC2 (stereo not drawn) | 130
CC(C)(O)Cc1ccccc1 | 24
FC(F)(F)c1ccc2cc[nH]c2c1 | 103
CCCCCCCCCCC(C)CC (stereo not drawn) | -38
NS(=O)(=O)C(F)(F)F | 118
Cc1oc(S(=O)(=O)N2CCCC2)cc1C(=O)O | 185
OCC1CCN(c2ncccn2)CC1 | 52 to 54
CC(=O)Oc1c(-c2ccccc2)[nH]c2ccccc12 | 107
CCOC(=O)C1=C(C)NC(C)=C(C(=O)OCC)C1c1ccccc1 | 157
O=Nc1c(-c2ccc([N+](=O)[O-])cc2)nc2ncccn12 | 191
COc1ccc2nc(Cl)c(CO)cc2c1 | 133
CC(=O)C=C(C)N1CCCC1 | 114 to 116
CCOC(=O)c1c(N)sc2c1CCC2 | 90 to 94
CC(=O)O[C@]12CC[C@@H](C(C)(C)C)C[C@H]1O[C@@H]2c1c(F)c(F)c(F)c(F)c1F | 83
CC12CCC(C(C(c3ccccc3)c3ccccc3)C1=O)C2(C)C (stereo not drawn) | 137
CCC(O)C(C)(C)C (stereo not drawn) | -1.67
Cc1noc(-c2ccccc2)c1CBr | 72
O=Cc1cc([N+](=O)[O-])ccc1Sc1ccccn1 | 109 to 110
C=C1C(=O)C23C4CC5C(C)(C)CCCC56COC(CC1C2OC(C)(C)O4)C63 (stereo not drawn) | 163
BrCc1nc2ccccc2nc1CBr | 150 to 154
Cc1cc(Oc2ccc(N)cn2)cc(C)c1Cl | 96 to 98
CC12CCc3c(ccc4cc(O)ccc34)C1CCC2=O (stereo not drawn) | 258

Structure (SMILES) | melting point [°C]
c1ccc(-c2ccc(-c3nnc(-c4ccccc4)o3)cc2)cc1 | 168 to 172
O=C1C(c2cccc3ccccc23)=[N+]([O-])c2cc([N+](=O)[O-])ccc21 | 223
Cc1nc2ccccc2c(C(=O)O)c1O | 200
COC(=O)c1ccncc1 | 12.1
COc1ccc(-c2csc(/C(C#N)=N\Nc3ccncc3)n2)cc1 | 255
C=CC(O)COS(=O)(=O)c1ccc(C)cc1 (stereo not drawn) | 57 to 63
O=[N+]([O-])c1cc(C(F)(F)F)c(Cl)c([N+](=O)[O-])c1Nc1ncc(C(F)(F)F)cc1Cl | 117
CCOC(=O)C(C#N)=C(N)c1cc2cc(Br)cc(OC)c2oc1=O | 274 to 276
CNC(=O)ON=CC(C)(C)SC | 99
N#CC1=C(C#N)C(=O)C(NCCCc2ccccc2)=C(Cl)C1=O | 179
Cc1c(CO)cnn1-c1ccccc1 | 88 to 89
COc1cccc(/N=C(\C)c2c(O)c3ccccc3n(-c3ccccc3)c2=O)c1 | 178 to 179
O=C1OC(c2ccccc2)=NC1=Cc1ccccc1 | 167
Cc1n[nH]c(C)c1-c1ccccc1 | 133 to 134
COc1cc(Cc2nccc3cc(OC)c(O)cc23)ccc1O | 209
N#CCC(=O)Nc1ccccc1 | 198 to 202
CCCCC(=O)Cl | -110
Clc1cc(Cl)c2oc3cc(Cl)c(Cl)cc3c2c1 | 202
C=CCOC(=O)N1CCN(C(=O)OCC2c3ccccc3-c3ccccc32)C(C(=O)O)C1 (stereo not drawn) | 63
C1CCN(C2CCNCC2)C1 | 52 to 57
FC(F)(F)C#CC(F)(F)F | -117
Oc1ccc(I)cn1 | 190
Cc1ncc(C#N)c(N)n1 | 249 to 252
CC(C)(C)c1ccc(C2CCC3(CC2)Cc2ccc(C(=O)n4cc(CCCC(=O)O)c5ccccc54)cc2C3)cc1 (stereo not drawn) | 120 to 150
Oc1c(F)cc(F)cc1F | 49.5

Further lines, results first:

melting point [°C] | Structure (SMILES)
221 to 223 | Cn1ccc2cc(C(=O)O)ccc21
205 to 206 | CC(=O)/C(=N\Nc1cccc([N+](=O)[O-])c1)C(=O)C(F)(F)F
77 to 78 | Cc1ccc(S(=O)(=O)CCCl)cc1
135 to 140 | OC1(c2ccc(Cl)c(C(F)(F)F)c2)CCNCC1
115 | Brc1ccc(Sc2ccc(Br)cc2)cc1
209 | Cc1nc2ccccc2n1CCc1n[nH]c(=S)o1
-32 | CCCCCCCCC=CCCCCCCCC(=O)OCC
134 | c1ccc(C2=NC(c3ccccc3)C(c3ccccc3)N2)cc1 (stereo not drawn)
83 | CC1=C(O)C(=O)C(C(C)C)CC1 (stereo not drawn)
54 to 57 | C1=C[C@@H](OCc2ccccc2)[C@H](OCc2ccccc2)[C@@H](COCc2ccccc2)O1
239 to 243 | NNC(=O)C(=O)NN
-50 | CC(C)C(=O)OCC(C)(C)C(O)C(C)C (stereo not drawn)
100 to 103 | Cc1cccc(P(c2cccc(C)c2)c2cccc(C)c2)c1
32.5 | C1CCSSC1
-44 | CCCCCCCCC1CCCC1
54 to 57 | OCc1ccccc1N1CCOCC1
196 | O=C(O)COc1cccc2ccccc12
5 | CC(C)OC(=O)COc1ccc(Cl)cc1Cl
122 | Cc1cc(-c2ccccc2)nnc1NCCN1CCOCC1
201 to 203 | Cc1nc(C(N)=S)cs1
158 | NC(=O)/C(=N\Nc1ccc(F)cc1)c1nc2ccccc2s1
144 | CC(C)(C)OC(=O)N[C@@H](CC(=O)O)c1ccc(Br)cc1
327 | CC1=C(C(=O)O)N2C(=O)C(NC(=O)C(N)c3ccccc3)C2SC1 (stereo not drawn)
149 to 150 | CC(C)(C)OC(=O)n1cc(C(=O)O)c2c(Br)cccc21
164 to 166 | NNC(=S)Nc1cccc(F)c1

melting point [°C] | Structure (SMILES)
102 | COC(=O)c1ccc(I)c([N+](=O)[O-])c1
70 | CCOC(=O)c1nc2ccccc2s1
137 to 143 | O=CC(C=O)c1ccc(Cl)cc1
305 | Cc1nc(-c2ccncc2)sc1C(=O)O
278 | C=C1C(=O)C23C(OC(C)=O)CC4C(C)(C)CCC(OC(C)=O)C4(C)C2C(OC(C)=O)CC1(O)C3OC(C)=O (stereo not drawn)
46 | Nc1ccc(S)cc1
31 | O=C(O)CCCC1CCCCC1
93 | CC(C)(C)OC(=O)Nc1ccccn1
132 | CC(=O)/C(=C/Nc1ccccc1)Cc1ccccc1
94 | OCCN1CCN(CCCN2c3ccccc3Sc3ccc(Cl)cc32)CC1
80 | CCCCCC(C=O)=Cc1ccccc1
73 to 74 | COC(=O)c1scc(Br)c1OC
28 | CC1(C)CCCC(C)(C)N1
< 20 | Brc1cccc(Br)c1Oc1ccccc1
126 to 128 | O=Cc1ccc(N2CCOCC2)s1
222 to 224 | Cn1nc([N+](=O)[O-])c2c(=O)cc[nH]c21
92 | COC(=O)C1CCCc2c1[nH]c1cc(OC)ccc21 (stereo not drawn)
165 | CC1=C(C(=O)O)C(c2ccccc2)N(C)C(=O)N1C (stereo not drawn)
67 to 69 | ClCc1ccc(-c2nccs2)cc1
207 | C[C@]12C=CC(=O)C=C1C(=O)C[C@@H]1[C@@H]2CC[C@@]2(C)[C@H]1CCC21OCCO1
192 to 193 | Cc1onc(-c2ccccc2)c1C(=O)O
138 to 143 | O=Cc1ccc2cccnc2n1
154 to 156 | Nc1cc2ccccc2cn1
156 to 158 | O=C(C=Cc1cccc(O)c1)c1ccccc1
